Source: PMC10644342, “Improved Antibacterial Activity of 1,3,4-Oxadiazole-Based Compounds That Restrict Staphylococcus aureus Growth Independent of LtaS Function” (ACS Infectious Diseases, 2023)
Converted amounts (≈) assume the structure as drawn. Like-named read-outs stand apart in the source and are kept apart here. Peptide text beside a SMILES is read from it. * marks the point of attachment. βNA = c1ccc2cc(N*)ccc2c1

Assays:
[1] = test system: S. epidermidis strain RP62A; assay: Biofilm prevention, crystal violet assay; format: cell-based, Staphylococcus epidermidis; conditions: for concentration causing a 50% reduction in biofilm formation: 24 h
Method: (§1) An indication of the biofilm prevention capabilities of 1771 and its derivatives 9–14 was achieved through the application of the crystal violet assay. S. aureus strain SH1000 and S. epidermidis strain RP62A were used, as they are strong biofilm formers. Overnight cultures were diluted 1:200 in fresh TSB containing 0.5% glucose (TSB-G), and 100 μL was added to individual wells in a 96-well microtiter plate. One hundred microliters of 1771 and 9–14 were diluted in TSB-G and added to bacteria at a final concentration ranging from 256 to 0.25 μg/mL with subsequent incubation for 24 h at 37 °C in a static incubator. Following incubation, biofilms were washed four times with ddH2O before being stained with 150 μL of 0.1% crystal violet for 30 min at room temperature. Following a further four washes in ddH2O, wells were resuspended in 200 μL of 7% acetic acid. The absorbance intensity of the crystal violet was measured at abs595nm in a Sunrise plate reader. Biomass formed was measured as a percentage of the no-compound control.

S. epidermidis = assay: MIC, broth microdilution (CLSI); format: cell-based, Staphylococcus epidermidis; conditions: Staphylococcus epidermidis, read-out: minimum inhibitory concentration
Method: (§2) S. aureus, S. epidermidis, E. faecalis, and E. faecium strains were routinely cultivated on tryptic soy agar (TSA) and grown for 18 h at 37 °C. S. aureus single colonies were subsequently transferred into 2 mL of tryptic soy broth (TSB) and grown for a further 18 h at 37 °C while being shaken at 180 rpm. S. pyogenes, S. agalactiae, and S. dysgalactiae strains were routinely cultured on TSA supplemented with 5% sheep blood and grown for 18 h at 37 °C with 5% CO2. E. coli was grown in LB broth at 37 °C. For LtaS-deficient strains, TSB was supplemented with 0.5 M NaCl to provide an osmotically balanced environment and instead grown at 30 °C. For strains harboring the pRMC2 tetracycline inducible vector,[61] the growth medium was supplemented with 10 μg/mL chloramphenicol and […] anhydrotetracycline hydrochloride (Sigma). Phenylalanine-arginine β-naphthylamide (PAβN) (Sigma) was dissolved in sterile water.
(§3) B. subtilis, staphylococcal, and enterococcal strains were grown in Mueller Hinton broth (MHB), while streptococcal strains were grown in MHB supplemented with 5% laked horse blood. All strains were grown for 18 h at 37 °C. The overnight cultures were subsequently subcultured 1:200 and grown to the exponential phase (OD600nm = 0.5–0.6) in fresh broth. 1771 and its derivatives 9–14 were reconstituted in DMSO and further diluted by performing a 1:2 serial dilution ranging between 256 and 0.125 μg/mL in a 96-well microtiter plate. One hundred microliters of 0.5 McFarland standardized inoculum (approximately equal to 5 × 10^5 cfu) were then dispensed into each well in the 96-well microtiter plate. The plate was incubated for 18 h at 37 °C.

S. aureus = assay: MIC, broth microdilution (CLSI); format: cell-based, Staphylococcus aureus; conditions: for fold increase in the MIC when compared to 1771: S. aureus and S. epidermidis strains; for MIC: Staphylococcus aureus, read-out: minimum inhibitory concentration
Method: as §2, §3

S. aureus strain SH1000 = assay: Biofilm prevention, crystal violet assay; format: cell-based, Staphylococcus aureus; conditions: for concentration causing a 50% reduction in biofilm formation: SH1000, 24 h; for biofilm prevention compared with 1771: SH1000
Method: as §1

E. coli strain K12 = assay: Growth inhibition in combination with PAβN; format: cell-based, Escherichia coli; conditions: PAβN alone up to 100 μg/mL
Method: Phenylalanine-arginine β-naphthylamide (PAβN) is a well-studied efflux pump inhibitor, which can also permeabilize the outer membrane of Gram-negative organisms.[40] […] Without the addition of PAβN (0 μg/mL), neither 1771 nor 13 had any growth inhibitory activity at concentrations up to 64 μg/mL. With the addition of 25 μg/mL of PAβN, the E. coli strain K12 could still grow in the presence of 64 μg/mL of 1771 or 13; however, the growth rate was severely impacted in a dose-dependent manner. […] To further evaluate the Gram-negative coverage of 1771 and 13, we also tested 1771 or 13 in combination with PAβN against Pseudomonas aeruginosa strain PAO1, Klebsiella pneumoniae strain 699 (clinical isolate), and Acinetobacter baumannii strain DF1000 (clinical isolate) (Figure S6a–c).
Figure 8 Permeabilization of the outer membrane renders E. coli susceptible to 1771 and 13. Bacterial growth curves of (a) 1771 and (b) 13 (0–64 μg/mL) in combination with 0, 25, 50, and 100 μg/mL of PAβN. The bacterial growth (OD600nm) was plotted against time following 18 h of growth at 37 °C. The icons represent the mean of three biological replicates.

LTA = LTA quantification by Western blot; format: cell-based, Staphylococcus aureus; conditions: strain LAC, 1× and 4× the MIC
Method: Overnight cultures of S. aureus strains were diluted 1:200 in fresh TSB and grown to an optical density of OD600nm 0.3. […] Vancomycin and daptomycin at 1× and 4× MIC were also included as control antibiotics. Cells were then normalized to have 10 mL of OD600nm 0.6, pelleted at 4000 rpm, and resuspended in 300 μL of PBS containing 200 μg/mL lysostaphin. This suspension was then incubated at 37 °C for 45 min to allow digestion of the cell wall to occur. One hundred microlitres of 4× SDS sample buffer were then added, and the mixture was boiled at 95 °C for 20 min. The insoluble material was then removed by pelleting at 16,000 rpm for 10 min. The supernatant containing LTA was then subjected to SDS-PAGE on a 4–20% Tris-glycine gel (Bio-Rad). The gel was transferred onto a PVDF membrane using a Trans-Blot Turbo Transfer System (Bio-Rad). The membrane was blocked overnight in TBST containing 5% semi-skimmed milk before being incubated with a mouse anti-LTA antibody (Hycult; HM2048; 1:2000 dilution) followed by a goat antimouse-HRP secondary antibody (Proteintech; SA00001; 1:2000 dilution) before being visualized using an Amersham-ECL kit (Cytiva).

HL-60 cell line = conditions: antibiotics used in the training set, Table S2; cited from earlier work

SMILES	concentration causing a 50% reduction in biofilm formation [1]	MIC (S. epidermidis; strain 305)	MIC (S. epidermidis; strain 311)	MIC (S. epidermidis; strain 319)	MIC (S. epidermidis; strain 322)	MIC (S. epidermidis; strain 771)	MIC (S. epidermidis; strain 780)	MIC (S. epidermidis; strain RP62A)	fold increase in the MIC when compared to 1771 (S. aureus)	MIC (S. aureus; NEWMAN, strain Newman)	MIC (S. aureus; strain EMRSA-15)	MIC (S. aureus; strain LAC)	MIC (S. aureus; strain MRSA252)	MIC (S. aureus; strain MW2)	MIC (S. aureus; strain Mu3)	MIC (S. aureus; strain Mu50)	MIC (S. aureus; strain SH1000)	MIC (S. aureus; strain TW20)	concentration causing a 50% reduction in biofilm formation (S. aureus strain SH1000)	LTA signal by Western blot (LTA)	further results
COc1ccc2c(ccc3occ(CC(=O)OCC(=O)Nc4nnc(-c5ccccc5)o4)c32)c1 [Compound 9, 2-Oxo-2-((5-phenyl-1,3,4-oxadiazol-2-yl)amino)ethyl 2-(7-Methoxynaphtho[2,1-b]furan-1-yl)acetate]	16 to 64 µg/mL	64 mg/L (≈ 140 µM)	64 mg/L (≈ 140 µM)	64 mg/L (≈ 140 µM)	64 mg/L (≈ 140 µM)	64 mg/L (≈ 140 µM)	32 mg/L (≈ 70 µM)	32 mg/L (≈ 70 µM)	4- to 16 fold	32 mg/L (≈ 70 µM)	64 mg/L (≈ 140 µM)	32 to 64 mg/L (≈ 70 to 140 µM)	64 mg/L (≈ 140 µM)	64 mg/L (≈ 140 µM)	64 mg/L (≈ 140 µM)	64 mg/L (≈ 140 µM)	32 mg/L (≈ 70 µM)	32 mg/L (≈ 70 µM)	32 to 64 µg/mL	–	–
O=C(COC(=O)Cc1coc2ccc3ccccc3c12)Nc1nnc(-c2cccc(Cl)c2)o1 [Compound 10, 2-((5-(3-Chlorophenyl)-1,3,4-oxadiazol-2-yl)amino)-2-oxoethyl 2-(Naphtho[2,1-b]furan-1-yl)acetate]	16 to 64 µg/mL	32 to 64 mg/L (≈ 69.3 to 139 µM)	32 to 64 mg/L (≈ 69.3 to 139 µM)	64 mg/L (≈ 139 µM)	64 mg/L (≈ 139 µM)	32 to 64 mg/L (≈ 69.3 to 139 µM)	32 to 64 mg/L (≈ 69.3 to 139 µM)	64 mg/L (≈ 139 µM)	4- to 16 fold	64 mg/L (≈ 139 µM)	32 to 64 mg/L (≈ 69.3 to 139 µM)	64 mg/L (≈ 139 µM)	64 mg/L (≈ 139 µM)	64 mg/L (≈ 139 µM)	64 mg/L (≈ 139 µM)	64 mg/L (≈ 139 µM)	64 mg/L (≈ 139 µM)	64 mg/L (≈ 139 µM)	32 to 64 µg/mL	–	–
COc1ccc2c(ccc3occ(CC(=O)OCC(=O)Nc4nnc(-c5cccc(Cl)c5)o4)c32)c1 [Compound 11, 2-((5-(3-Chlorophenyl)-1,3,4-oxadiazol-2-yl)amino)-2-oxoethyl 2-(7-Methoxynaphtho[2,1-b]furan-1-yl)acetate]	–	2 to 4 mg/L (≈ 4.07 to 8.13 µM)	2 mg/L (≈ 4.07 µM)	2 mg/L (≈ 4.07 µM)	4 mg/L (≈ 8.13 µM)	2 mg/L (≈ 4.07 µM)	4 mg/L (≈ 8.13 µM)	2 to 4 mg/L (≈ 4.07 to 8.13 µM)	–	2 mg/L (≈ 4.07 µM)	2 mg/L (≈ 4.07 µM)	4 mg/L (≈ 8.13 µM)	4 mg/L (≈ 8.13 µM)	2 mg/L (≈ 4.07 µM)	2 mg/L (≈ 4.07 µM)	2 mg/L (≈ 4.07 µM)	2 mg/L (≈ 4.07 µM)	2 mg/L (≈ 4.07 µM)	–	–	biofilm prevention compared with 1771 [1]: better than 1771; biofilm prevention compared with 1771 (S. aureus strain SH1000): better than 1771
O=C(COC(=O)Cc1coc2ccc3ccccc3c12)Nc1nnc(-c2ccc(F)cc2)o1 [Compound 12, 2-((5-(4-Fluorophenyl)-1,3,4-oxadiazol-2-yl)amino)-2-oxoethyl 2-(Naphtho[2,1-b]furan-1-yl)acetate]	–	8 mg/L (≈ 18 µM)	4 to 8 mg/L (≈ 8.98 to 18 µM)	4 to 8 mg/L (≈ 8.98 to 18 µM)	8 mg/L (≈ 18 µM)	4 to 8 mg/L (≈ 8.98 to 18 µM)	4 to 8 mg/L (≈ 8.98 to 18 µM)	4 to 8 mg/L (≈ 8.98 to 18 µM)	–	8 mg/L (≈ 18 µM)	8 mg/L (≈ 18 µM)	8 mg/L (≈ 18 µM)	16 mg/L (≈ 35.9 µM)	8 mg/L (≈ 18 µM)	8 mg/L (≈ 18 µM)	4 to 8 mg/L (≈ 8.98 to 18 µM)	8 mg/L (≈ 18 µM)	8 mg/L (≈ 18 µM)	–	–	biofilm prevention compared with 1771 [1]: better; biofilm prevention compared with 1771 (S. aureus strain SH1000): worse than 1771
O=C(COC(=O)Cc1coc2ccc3ccccc3c12)Nc1nnc(-c2ccccc2)s1 [Compound 14, 2-Oxo-2-((5-phenyl-1,3,4-thiadiazol-2-yl)amino)ethyl 2-(Naphtho[2,1-b]furan-1-yl)acetate]	16 to 64 µg/mL	> 64 mg/L	> 64 mg/L	> 64 mg/L	> 64 mg/L	> 64 mg/L	> 64 mg/L	> 64 mg/L	4- to 16 fold	> 64 mg/L	> 64 mg/L	> 64 mg/L	> 64 mg/L	> 64 mg/L	> 64 mg/L	> 64 mg/L	> 64 mg/L	> 64 mg/L	32 to 64 µg/mL	–	–
NC(N)=NCCC[C@H](NC(=O)[C@@H](N)Cc1ccccc1)C(=O)Nc1ccc2ccccc2c1 [PAβN, Phenylalanine-arginine β-naphthylamide] (H-Phe-Arg-βNA)	–	–	–	–	–	–	–	–	–	–	–	–	–	–	–	–	–	–	–	–	impact on growth (E. coli strain K12): very limited impact on growth
CCCCCCCCCC(=O)N[C@@H](Cc1c[nH]c2ccccc12)C(=O)N[C@H](CC(N)=O)C(=O)N[C@@H](CC(=O)O)C(=O)N[C@@H]1C(=O)NCC(=O)N[C@@H](CCCN)C(=O)N[C@@H](CC(=O)O)C(=O)N[C@H](C)C(=O)N[C@@H](CC(=O)O)C(=O)NCC(=O)N[C@H](CO)C(=O)N[C@@H]([C@H](C)CC(=O)O)C(=O)N[C@@H](CC(=O)c2ccccc2N)C(=O)O[C@@H]1C [daptomycin]	–	–	–	–	–	–	–	–	–	–	–	–	–	–	–	–	–	–	–	No reduction in LTA	–
Cc1c(N)cccc1Cn1ccc(OCCc2cccs2)cc1=O [nilofabicin]	–	–	–	–	–	–	–	–	–	–	–	–	–	–	–	–	–	–	–	substantial decrease in LTA production	–
Oc1cc(Cl)ccc1Oc1ccc(Cl)cc1Cl [triclosan]	–	–	–	–	–	–	–	–	–	–	–	–	–	–	–	–	–	–	–	substantial decrease in LTA production	–
CN[C@H](CC(C)C)C(=O)N[C@H]1C(=O)N[C@@H](CC(N)=O)C(=O)N[C@H]2C(=O)N[C@H]3C(=O)N[C@H](C(=O)N[C@H](C(=O)O)c4cc(O)cc(O)c4-c4cc3ccc4O)[C@H](O)c3ccc(c(Cl)c3)Oc3cc2cc(c3O[C@@H]2O[C@H](CO)[C@@H](O)[C@H](O)[C@H]2O[C@H]2C[C@](C)(N)[C@H](O)[C@H](C)O2)Oc2ccc(cc2Cl)[C@H]1O [vancomycin]	–	–	–	–	–	–	–	–	–	–	–	–	–	–	–	–	–	–	–	No reduction in LTA	Cell health index (CHI) (HL-60 cell line): 0.16
